For this assay, the target named is T1, NK-1 receptor (Meriones unguiculatus, UniProt Q5DUB1).
T1 construct: from tissue; host or cells: central nervous system of living Mongolian gerbils (in vivo, agonist infused i.c.v.)
The assay is described as follows: Gerbil foot-tapping induced by central NK-1 receptor agonist (GR73632). The following applies: iv. The format is in vivo, Mongolian gerbils. From the text:
Assay 2: Gerbil Foot-Tapping
CNS-penetrant NK-1 receptor antagonists for use in the present invention can be identified by their ability to inhibit foot tapping in gerbils induced by anxiogenic agents (such as pentagastrin) or central infusion of NK-1 receptor agonists such as GR73632, or caused by aversive stimulation such as foot shock or single housing, based on the method of Rupniak & Williams, Eur. J. Pharmacol., 1994, 265, 179.
Male or female Mongolian gerbils (35-70 g) are anaesthetised by inhalation of an isoflurane/oxygen mixture to permit exposure of the jugular vein in order to permit administration of test compounds or vehicle in an injection volume of 5 ml/kg i.v. Alternatively, test compounds may be administered orally or by subcutaneous or intraperitoneal routes. A skin incision is then made in the midline of the scalp to expose the skull. […]

ED50 data for one compound are collected here from patent US6100256A, “Use of NK-1 receptors antagonists for treating schizophrenic disorders” (priority 1996, dated 2000).

Structures are written as SMILES. Where two headings read alike, the source gives them in different places.

T1 sequence (Q5DUB1 whole entry, the tested form may be a part): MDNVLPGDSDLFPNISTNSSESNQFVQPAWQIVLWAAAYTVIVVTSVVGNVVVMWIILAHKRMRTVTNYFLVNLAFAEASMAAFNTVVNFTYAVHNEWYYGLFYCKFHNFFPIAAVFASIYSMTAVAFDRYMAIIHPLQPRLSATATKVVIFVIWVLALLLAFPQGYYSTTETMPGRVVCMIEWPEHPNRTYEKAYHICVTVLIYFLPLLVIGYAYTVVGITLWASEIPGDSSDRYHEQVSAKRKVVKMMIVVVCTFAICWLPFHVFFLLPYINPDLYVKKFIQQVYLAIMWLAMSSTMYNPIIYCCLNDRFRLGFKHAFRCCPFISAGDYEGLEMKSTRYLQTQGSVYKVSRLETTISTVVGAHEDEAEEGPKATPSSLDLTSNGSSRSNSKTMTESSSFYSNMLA

In the case of `OC[C@@H](O[C@H]1OCCN(Cc2nc[nH]n2)[C@H]1c1ccc(F)cc1)c1cc(C(F)(F)F)cc(C(F)(F)F)c1` [2-(R)-(1-(S)-(3,5-bis(trifluoromethyl)phenyl)-2-hydroxyethoxy)-3-(S)-(4-fluorophenyl)-4-(1,2,4-triazol-3-yl)methylmorpholine], the ED50 worked out at 0.38 mg/kg (5 min, i.v., 5 mins., administered immediately prior to central NK1 agonist challenge, read-out: gerbil foot-tapping (5 mins.): ID50) and 2.2 mg/kg (24 hrs. prior to central NK1 agonist challenge, read-out: gerbil foot-tapping (24 hrs.): ID50).
